Source: patent US7115741B2, “4-thieno[2,3-D]pyrimidin-4-YL piperazine compounds” (priority 2001, dated 2006)

Tested on: platelet ADP receptors
Experiment: ARB binding assay (platelet ADP receptor binding, [3H]2-MeS-ADP)
Set-up: species or system human
Details: relative activities of selected compounds in the ARB binding assay
Description: Utilizing the second assay the potency of inhibition of such compounds with respect to [^3H]2-MeS-ADP binding to whole platelets is determined. [^3H]2-MeS-ADP binding experiments are routinely performed with outdated human platelets collected by standard procedures at hospital blood banks. Apyrase-washed outdated platelets are prepared as follows (all steps at room temperature, if not indicated otherwise):
Outdated platelet suspensions are diluted with 1 volume of CGS and platelets pelleted by centrifugation at 1900×g for 45 minutes. Platelet pellets are resuspended at 3–6×10^9 platelets/ml in CGS containing 1 U/ml apyrase (grade V, Sigma, St. Louis, Mo.) and incubated for 15 minutes at 37° C. After centrifugation at 730×g for 20 minutes, pellets are resuspended in Hepes-Tyrode's buffer containing 0.1% BSA (Sigma, St. Louis, Mo.) at a concentration of 6.66×10^8 platelets/ml. Binding experiments are performed after >45 minutes resting of the platelets.
Alternatively, binding experiments are performed with fresh human platelets prepared as described in I.(Inhibition of ADP-Mediated Platelet Aggregation in vitro), except that platelets are resuspended in Hepes-Tyrode's buffer containing 0.1% BSA (Sigma, St. Louis, Mo.) at a concentration of 6.66×10^8 platelets/ml. Very similar results are obtained with fresh and outdated platelets.
A platelet ADP receptor binding assay using the tritiated potent agonist ligand [^3H]2-MeS-ADP (Jantzen, H. M. et al. (1999) Thromb. Hemost. 81:111–117) has been adapted to the 96-well microtiter format. In an assay volume of 0.2 ml Hepes-Tyrode's buffer with 0.1% BSA and 0.6% DMSO, 1×10^8 apyrase-washed platelets are preincubated in 96-well flat bottom microtiter plates for 5 minutes with serial dilutions of test compounds before addition of 1 nM [^3H]2-MeS-ADP ([^3H]2-methylthioadenosine-5′-diphosphate, ammonium salt; specific activity 48–49 Ci/mmole, obtained by custom synthesis from Amersham Life Science, Inc., Arlington Heights, Ill., or NEN Life Science Products, Boston, Mass.). Total binding is determined in the absence of test compounds. Samples for nonspecific binding may contain 10^−5 M unlabelled 2-MeS-ADP (RBI, Natick, Mass.). After incubation for 15 minutes at room temperature, unbound radioligand is separated by rapid filtration and two washes with cold (4–8° C.) Binding Wash Buffer (10 mM Hepes pH 7.4, 138 mM NaCl) using a 96-well cell harvester (Minidisc 96, Skatron Instruments, Sterling, Va.) and 8×12 GF/C glassfiber filtermats (Printed Filtermat A, for 1450 Microbeta, Wallac Inc., Gaithersburg, Md.). The platelet-bound radioactivity on the filtermats is determined in a scintillation counter (Microbeta 1450, Wallac Inc., Gaithersburg, Md.). Specific binding is determined by subtraction of non-specific binding from total binding, and specific binding in the presence of test compounds is expressed as % of specific binding in the absence of test compounds dilutions.

| Structure (SMILES) | Relative Activity |
| --- | --- |
| O=C(CC(F)(F)F)N1CCN(c2ncnc3sc(-c4ccccc4)cc23)CC1 [Example 111, 3,3,3-trifluoro-1-[4-(6-phenylthiopheno[3,2-e]pyrimidin-4-yl)piperazinyl]propan-1-one] | ++ (10–20 micromolar) |
| CCc1cc2c(N3CCN(C(=O)CCCNc4ncccn4)CC3)ncnc2s1 [Example 430, 1-[4-(6-Ethyl-thieno[2,3-d]pyrimidin-4-yl)-piperazin-1-yl]-4-(pyrimidin-2-ylamino)-butan-1-one] | + (>20 micromolar) |
| CCc1cc2c(N3CCN(C(=O)CCCCC4CCCCC4)CC3)ncnc2s1 [Example 311, 5-Cyclohexyl-1-[4-(6-ethyl-thieno[2,3-d]pyrimidin-4-yl)-piperazin-1-yl]-pentan-1-one] | + (>20 micromolar) |
| CCc1cc2c(N3CCN(C(=O)Cc4ccccc4)CC3)nc(O)nc2s1 [Example 183, 1-[4-(6-ethyl-2-hydroxythiopheno[3,2-e]pyrimidin-4-yl)piperazinyl]-2-phenylethan-1-one] | + (>20 micromolar) |
| CCc1cc2c(N3CCN(C(=O)C#Cc4ccccc4)CC3)ncnc2s1 [Example 332, 1-[4-(6-Ethyl-thieno[2,3-d]pyrimidin-4-yl)-piperazin-1-yl]-3-phenyl-propynone] | ++ (10–20 micromolar) |
| CCc1cc2c(N3CCCN(C(=O)CCCOn4nnc5ccccc54)CC3)ncnc2s1 [Example 188, 4-benzotriazolyloxy-1-[4-(6-ethylthiopheno[3,2-e]pyrimidin-4-yl)(1,4-diazaperhydroepinyl)]butan-1-one] | +++ (<10 micromolar) |
| CCOC(=O)c1nc(N2CCN(C(=O)Cc3ccccc3)CC2)c2cc(CC)sc2n1 [Example 236, 6-Ethyl-4-(4-phenylacetyl-piperazin-1-yl)-thieno[2,3-d]pyrimidine-2-carboxylic acid ethyl ester] | +++ (<10 micromolar) |
| CCc1cc2c(N3CCN(C(=O)Cc4ccccc4)CC3)ncnc2s1 [Example 2, 1-[4-(6-ethylthiopheno[3,2-e]pyrimidin-4-yl)piperazinyl]-2-phenylethan-1-one] | +++ (<10 micromolar) |
| CCc1cc2c(N3CCN(C(=O)c4cccc(COn5nnc6ccccc65)c4)CC3)ncnc2s1 [Example 250, [3-(Benzotriazol-1-yloxymethyl)-phenyl]-[4-(6-ethyl-thieno[2,3-d]pyrimidin-4-yl)-piperazin-1-yl]-methanone] | ++ (10–20 micromolar) |
| CCc1cc2c(N3CCN(C(=O)Cc4ccncc4)CC3)ncnc2s1 [Example 67, 1-[4-(6-ethylthiopheno[3,2-e]pyrimidin-4-yl)piperazinyl]-2-(4-pyridyl)ethan-1-one] | ++ (10–20 micromolar) |
| O=C(Cc1ccccc1)N1CCN(c2ncnc3sc(Br)cc23)CC1 [Example 125, 1-[4-(6-bromothiopheno[3,2-e]pyrimidin-4-yl)piperazinyl]-2-phenylethan-1-one] | +++ (<10 micromolar) |
| C#Cc1cc2c(N3CCN(C(=O)CC(F)(F)F)CC3)ncnc2s1 [Example 135, 1-[4-(6-ethlylylthiopheno[3,2-e]pyrimidin-4-yl)piperazinyl]-3,3,3-trifluoropropan-1-one] | +++ (<10 micromolar) |
| CCc1cc2c(N3CCN(C(=O)Cc4ccccc4)CC3c3ccccc3)ncnc2s1 (stereo not drawn) [Example 206, 1-[4-(6-ethylthiopheno[3,2-e]pyrimidin-4-yl)-3-phenylpiperazinyl]-2-phenylethan-1-one] | + (>20 micromolar) |
| CCc1cc2c(N3CCN(C(=O)C(F)(F)F)CC3)ncnc2s1 [Example 55, 1-[4-(6-ethylthiopheno[3,2-e]pyrimidin-4-yl)piperazinyl]-2,2,2-trifluoroethan-1-one] | +++ (<10 micromolar) |
| CCc1cc2c(N3CCN(C(=O)C=C(C(F)(F)F)C(F)(F)F)CC3)ncnc2s1 [Example 59, 1-[4-(6-ethylthopheno[3,2-e]pyrimidin-4-yl)pperazinyl]-4,4,4-trifluoro-3-(trifluoromethyl)but-2-en-1-one] | + (>20 micromolar) |
| CCc1cc2c(N3CCN(C(=O)CCC(=O)OC)CC3)ncnc2s1 [Example 384, 4-[4-(6-Ethyl-thieno[2,3-d]pyrimidin-4-yl)-piperazin-1-yl]-4-oxo-butyric acid methyl ester] | + (>20 micromolar) |
| CCc1cc2c(N3CCN(C(=O)CCCCNC(=O)c4ccccc4)CC3)ncnc2s1 [Example 313, N-{5-[4-(6-Ethyl-thieno[2,3-d]pyrimidin-4-yl)-piperazin-1-yl]-5-oxo-pentyl}-benzamide] | ++ (10–20 micromolar) |
| CCc1cc2c(N3CCN(C(=O)c4ccc5ccccc5n4)CC3)ncnc2s1 [Example 453, [4-(6-Ethyl-thieno[2,3-d]pyrimidin-4-yl)-piperazin-1-yl]-quinolin-2-yl-methanone] | + (>20 micromolar) |
| CCc1cc2c(N3CCN(C(=O)CCCCC#N)CC3)ncnc2s1 [Example 395, 6-[4-(6-Ethyl-thieno[2,3-d]pyrimidin-4-yl)-piperazin-1-yl]-6-oxo-hexanenitrile] | + (>20 micromolar) |
| CCc1cc2c(N3CCN(C(=O)CC(F)(F)F)CC3)ncnc2s1 [Example 5, 1-[4-(6-ethylthiopheno[3,2-e]pyrimidin-4-yl)piperazinyl]-3,3,3-trifluoropropan-1-one] | +++ (<10 micromolar) |
| CCc1cc2c(N3CCN(C(=O)CCCn4nnc5ccccc54)CC3)ncnc2s1 [Example 372, 4-Benzotriazol-1-yl-1-[4-(6-Ethyl-thieno[2,3-d]pyrimidin-4-yl)-piperazin-1-yl]-butan-1-one] | ++ (10–20 micromolar) |
| CC(C)(C)c1cc2c(N3CCN(C(=O)Cc4ccccc4)CC3)ncnc2s1 [Example 106, 1-{4-[6-(tert-butyl)thiopheno[3,2-e]pyrimidin-4-yl]piperazinyl}-2-phenylethan-1-one] | ++ (10–20 micromolar) |
| CCc1cc2c(N3CCN(C(=O)c4ccc(-c5ccccc5)s4)CC3)ncnc2s1 [Example 408, [4-(6-Ethyl-thieno[2,3-d]pyrimidin-4-yl)-piperazin-1-yl]-(5-phenyl-thiophen-2-yl)-methanone] | ++ (10–20 micromolar) |
| CCc1cc2c(N3CCN(C(=O)[C@H](C)c4ccccc4)CC3)ncnc2s1 [Example 349, 1-[4-(6-Ethyl-thieno[2,3-d]pyrimidin-4-yl)-piperazin-1-yl]-2-phenyl-propan-1-one] | + (>20 micromolar) |
| CCc1cc2c(N3CCN(C(=O)CCCCOc4ccccc4)CC3)ncnc2s1 [Example 305, 1-[4-(6-Ethyl-thieno[2,3-d]pyrimidin-4-yl)-piperazin-1-yl]-5-phenoxy-pentan-1-one] | +++ (<10 micromolar) |
| CCc1cc2c(N3CCN(C(=O)C(c4ccccc4)N4CCNCC4)CC3)ncnc2s1 (stereo not drawn) [Example 432, 1-[4-(6-Ethyl-thieno[2,3-d]pyrimidin-4-yl)-piperazin-1-yl]-2-phenyl-2-piperazin-1-yl-ethanone] | + (>20 micromolar) |
| CCc1cc2c(N3CCN(C(=O)CN4CCCC(n5nnc6ccccc65)C4)CC3)ncnc2s1 (stereo not drawn) [Example 271, 2-(3-Benzotriazol-1-yl-piperidin-1-yl)-1-[4-(6-ethyl-thieno[2,3-d]pyrimidin-4-yl)-piperazin-1-yl]-ethanone] | ++ (10–20 micromolar) |
| CCc1cc2c(N3CCN(C(=O)CCCSc4nccn4-c4ccccc4)CC3)ncnc2s1 [Example 429, 1-[4-(6-Ethyl-thieno[2,3-d]pyrimidin-4-yl)-piperazin-1-yl]-4-(1-phenyl-1H-imidazol-2-ylsulfanyl)-butan-1-one] | + (>20 micromolar) |
| CCc1cc2c(N3CCN(C(=O)[C@@H]4CCC[C@H](Cn5nnc6ccccc65)C4)CC3)ncnc2s1 [Example 279, (3-Benzotriazol-1-ylmethyl-cyclohexyl)-[4-(6-ethyl-thieno[2,3-d]pyrimidin-4-yl)-piperazin-1-yl]-methanone] | +++ (<10 micromolar) |
| CCc1cc2c(N3CCN(C(=O)C(c4ccccc4)c4ccccc4)CC3)ncnc2s1 [Example 70, 1-[4-(6-ethylthiopheno[3,2-e]pyrimidin-4-yl)piperazinyl]-2,2-diphenylethan-1-one] | + (>20 micromolar) |
